What was measured:
[1] = Ratio of drug level in brain to plasma in rat; assay type: ADME; conditions: read-out: BPR
[2] = Ratio of AUC (0 to 3 hrs) in FVB mouse brain to plasma at 1 mg/kg, iv by LC-MS/MS analysis; assay type: ADME, organism-based; conditions: read-out: Ratio AUC
Rattus norvegicus [3] = test: In vivo inhibition of Plk2-mediated phosphorylation of alpha-synuclein in Sprague-Dawley rat brain assessed as reduction in pS129-alpha-synuclein levels at 200 mg/kg, po administered as single dose after 6 hrs by sandwich ELISA relative to control; assay type: functional
Rattus norvegicus [4] = test: In vivo inhibition of Plk2-mediated phosphorylation of alpha-synuclein in Sprague-Dawley rat brain assessed as reduction in pS129-alpha-synuclein levels at 100 mg/kg, po administered as single dose after 6 hrs by sandwich ELISA relative to control; assay type: functional
[5] = Ratio of drug level in Sprague-Dawley rat brain to plasma at 200 mg/kg, po administered as single dose after 6 hrs by LC-MS/MS analysis; assay type: ADME, organism-based; conditions: read-out: BPR
[6] = Ratio of drug level in Sprague-Dawley rat brain to plasma at 100 mg/kg, po administered as single dose after 6 hrs by LC-MS/MS analysis; assay type: ADME, organism-based; conditions: read-out: BPR
MDR1 [7] = test: Efflux ratio of apparent permeability in MDCK2-MDR1; assay type: ADME, cell-based, Canis lupus familiaris; conditions: dog, MDCK-MDR1
MDR1 [8] = test: Efflux ratio of apparent permeability in MDCK cells expressing human MDR1; assay type: ADME, cell-based, Canis lupus familiaris; conditions: dog
[9] = Unbound Cmax in C57BL/6J mouse brain at 10 mg/kg, sc; assay type: ADME, organism-based; conditions: in vivo
Mus musculus [10] = test: In vivo target occupancy at CK1epsilon in C57BL/6J mouse CNS at 10 mg/kg, sc; assay type: functional
Mus musculus [11] = test: In vivo target occupancy at CK1delta in C57BL/6J mouse CNS at 10 mg/kg, sc; assay type: functional
[12] = Ratio of drug level in brain to plasma in Sprague-Dawley rat at 5 mg/kg, po after 3 hrs by LC-MS/MS analysis; assay type: ADME, organism-based; conditions: read-out: BPR
[13] = Efflux ratio of apparent permeability in human Caco2 cells by HPLC-MS/MS analysis; assay type: ADME, cell-based; conditions: Caco-2
[14] = Ratio of drug level in plasma to CSF in Alzheimer's disease patient at 50 to 125 mg, po qd for 4 weeks measured 23 to 28 hrs post last dose by LC/MS analysis; assay type: ADME, organism-based; conditions: human, in vivo
[15] = Drug uptake in mouse brain up to 20 mg/kg/day, po after 30 to 60 mins by LC/MS analysis relative to plasma; assay type: ADME, organism-based
[16] = Drug uptake in mouse brain at 5 mg/kg/day, po after 30 to 60 mins by LC/MS analysis; assay type: ADME, organism-based; conditions: in vivo, read-out: Drug uptake
[17] = Drug uptake in mouse CSF up to 20 mg/kg/day, po after 30 to 60 mins by LC/MS analysis relative to brain; assay type: ADME, organism-based, Cerebrospinal fluid; conditions: in vivo
[18] = Ratio of drug level in brain to plasma in C57BL6 mouse at 30 mg/kg, po after 1 hr by LC/MS analysis; assay type: ADME, organism-based; conditions: read-out: BPR

**Q.** For CN(CCNc1ccn2ncc(-c3ccc(C(N)=O)cc3)c2n1)C(=O)OC(C)(C)C, which Kp [1] is on record?
**A.** The Kp was 0.007.

**Q.** What does the source list for CC[C@@]12COCCN1c1nc(-n3ccnc3-c3ccccc3)ncc1N(C)C2=O?
**A.** Kp [2]: 0.3; inhibition in vivo at 200 mg/kg (Rattus norvegicus [3]): 41.4%; inhibition in vivo at 100 mg/kg (Rattus norvegicus [4]): 34.5%; Kp at 6 h [5]: 0.46; Kp at 6 h [6]: 0.42

**Q.** With CN1C(=O)[C@@H](NC(=O)c2nnc(Cc3ccccc3)o2)COc2cccnc21 as the compound, how does the efflux ratio (MDR1 [7]) read?
**A.** Its efflux ratio is < 2.

**Q.** With COc1ncccc1-c1cnn2ccc(N3CCN(C(=O)OC(C)C)CC3)nc12 as the compound, how does the Kp [1] read?
**A.** Its Kp is > 2.

**Q.** Which efflux ratio (MDR1 [8]) does the source give for Nc1nccc(-c2c(-c3ccc(F)cc3)ncn2C2CCN(Cc3ccon3)CC2)n1 here?
**A.** The efflux ratio was 3.2.

**Q.** What about the fCmax [9] of the same compound?
**A.** The fCmax was 117 nM.

**Q.** And the Occ (Mus musculus [10])?
**A.** The Occ was 58%.

**Q.** And the Occ (Mus musculus [11])?
**A.** Its Occ is 88%.

**Q.** For CN1CCN(c2cc(-c3ccncc3)c(-c3ccc4ccccc4c3)nn2)CC1 [MW-150], which Kp at 3 h [12] is on record?
**A.** The Kp at 3 h was > 0.9.

**Q.** What about the efflux ratio [13] of the same compound?
**A.** The efflux ratio was 0.9.

**Q.** Which Ratio [14] does the source give for CN1CCN(CCOc2cc(OC3CCOCC3)c3c(Nc4c(Cl)ccc5c4OCO5)ncnc3c2)CC1 [SARACATINIB] here?
**A.** The Ratio was 0.4.

**Q.** What about the Drug uptake [15] of the same compound?
**A.** The Drug uptake was 50%.

**Q.** And the concentration [16]?
**A.** The concentration was 0.05 µM.

**Q.** What about the Drug uptake [17] of the same compound?
**A.** Its Drug uptake is 35%.

**Q.** With Cc1ccc(C(=O)NNC(=O)c2c(C)cccc2Cl)cc1C#Cc1cnc2ccccc2c1 [VODOBATINIB] as the compound, how does the Kp at 1 h [18] read?
**A.** Its Kp at 1 h is 0.4.

— ChEMBL document CHEMBL4118171, “Brain penetrant kinase inhibitors: Learning from kinase neuroscience discovery” (Bioorg Med Chem Lett, 2018)
